Source: US20180219160A1, “BENZOBIS(THIADIAZOLE) DERIVATIVE, INK COMPRISING THE SAME, AND ORGANIC ELECTRONIC DEVICE USING THE SAME” (UBE INDUSTRIES, LTD., priority 2014, published 2018)

Assays:
[1] = Evaluation of solubility in organic solvents (visual observation of complete dissolution); format: physicochemical
Method: [Evaluation of Solubility] The evaluation of the solubility of the synthesized compound was conducted by the following method.
About 2-3 mg of the synthesized compound was precisely weighed, and each solvent was added to the compound such that a predetermined concentration of the solute (0.3 wt %, 0.2 wt %, 0.1 wt %) was reached. The resultant mixture was stirred for 30 minutes at a predetermined temperature, and then it was evaluated by visual appearance observation whether or not the solute (synthesized compound) was completely dissolved in the solvent, which was the result of the evaluation of the solubility. As the solvent, chloroform (boiling point 61° C.), toluene (boiling point 111° C.), anisole (boiling point 154° C.), mesitylene (boiling point 165° C.), ortho-dichlorobenzene (boiling point 181° C.) and 1-methylnaphthalene (boiling point 241° C.) were used.

[2] = Thermal weight loss analysis (initial decomposition temperature); format: physicochemical
[3] = 1-methylnaphthalene, room temperature (25° C.)
[4] = chloroform, room temperature (25° C.)
[5] = mesitylene, room temperature (25° C.)

Compound	solubility (concentration completely dissolved) [1, 3]	solubility (concentration completely dissolved) [1, 4]	initial decomposition temperature [2]	further results
CCCCCCN1C(=O)c2cc(-c3c4c(c(-c5cc6c(s5)C(=O)N(CCCCCC)C6=O)c5nsnc35)N=S=N4)sc2C1=O [Compound (12-6)]	≥ 0.1 wt %	≥ 0.2 wt %	364 °C	solubility (concentration completely dissolved) ([1]; mesitylene, 80° C.): ≥ 0.3 wt %; solubility (concentration completely dissolved) ([1]; toluene, 80° C.): ≥ 0.3 wt %
CCCCCCCCN1C(=O)c2cc(-c3c4c(c(-c5cc6c(s5)C(=O)N(CCCCCCCC)C6=O)c5nsnc35)N=S=N4)sc2C1=O [Compound (12-8)]	≥ 0.3 wt %	≥ 0.2 wt %	367 °C	solubility (concentration completely dissolved) [1, 5]: ≥ 0.3 wt %; solubility (concentration completely dissolved) ([1]; toluene, room temperature (25° C.)): ≥ 0.3 wt %
CCCCCCCCCCCCN1C(=O)c2cc(-c3c4c(c(-c5cc6c(s5)C(=O)N(CCCCCCCCCCCC)C6=O)c5nsnc35)N=S=N4)sc2C1=O [Compound (12-12)]	–	≥ 0.1 wt %	360 °C	solubility (concentration completely dissolved) ([1]; mesitylene, 60° C.): ≥ 0.3 wt %; solubility (concentration completely dissolved) ([1]; toluene, 60° C.): ≥ 0.3 wt %
CCCCC(CC)CN1C(=O)c2cc(-c3c4c(c(-c5cc6c(s5)C(=O)N(CC(CC)CCCC)C6=O)c5nsnc35)N=S=N4)sc2C1=O (stereo not drawn) [Compound (12-EH)]	≥ 0.3 wt %	≥ 0.2 wt %	369 °C	solubility (concentration completely dissolved) ([1]; mesitylene, 80° C.): ≥ 0.3 wt %; solubility (concentration completely dissolved) ([1]; ortho-dichlorobenzene, room temperature (25° C.)): ≥ 0.3 wt/o; solubility (concentration completely dissolved) ([1]; toluene, 60° C.): ≥ 0.3 wt %
O=C1c2cc(-c3c4c(c(-c5cc6c(s5)C(=O)N(CC(F)(F)C(F)(F)C(F)(F)F)C6=O)c5nsnc35)N=S=N4)sc2C(=O)N1CC(F)(F)C(F)(F)C(F)(F)F [Compound (12-HepFBu)]	–	≥ 0.1 wt %	367 °C	solubility (concentration completely dissolved) ([1]; anisole, room temperature (25° C.)): ≥ 0.1 wt %; solubility (concentration completely dissolved) [1, 5]: ≥ 0.1 wt %
CN1C(=O)c2cc(-c3c4c(c(-c5cc6c(s5)C(=O)N(C)C6=O)c5nsnc35)N=S=N4)sc2C1=O [Compound (12-Me)]	–	–	367 °C	–
CN1C(=O)c2cc3cc(-c4c5c(c(-c6cc7cc8c(cc7s6)C(=O)N(C)C8=O)c6nsnc46)N=S=N5)sc3cc2C1=O [Compound (22-1)]	–	–	475 °C	–
CCCCCCN1C(=O)c2cc3cc(-c4c5c(c(-c6cc7cc8c(cc7s6)C(=O)N(CCCCCC)C8=O)c6nsnc46)N=S=N5)sc3cc2C1=O [Compound (22-6)]	–	–	405 °C	–
